SMILES strings stand for the structures. Where two headings read alike, the source gives them in different places.

The assay deals with HIV-1 protease (Human immunodeficiency virus type 1 group M subtype B, UniProt P04585). The assay can be described thus: biochemical. Here is the method: The HIV protease screening assay is based on fluorescently labeled substrate which can be resolved from nonlabeled cleavage product using special beads coated with streptavidin. The substrate is biotinylated at the amino terminal arginine and fluorescently labeled with fluorescein isothiocynate (FITC) at the carboxyl terminal lysine. This assay has been employed to detect novel, nonpeptidic inhibitors of HIV-1 protease. Substrate (20 μM of 0.2 μM), sample (10 μl of desired concentraion), and enzyme (10 μl of 0.1 μM) are added to a 96 well pandex plate. The assay is run in 0.1 M sodium acetate buffer at pH 5.5 in the presence of 1.0 M sodium chloride and 0.05% NP-40 with incubated in the dark for one hour at room temperature. Strepavidin coated polystyrene beads {40 μl of 0.1% (w/v)} are added and the plate is incubated in the dark for an additional half hour. The labeled cleavage product is separated from the unreacted substrate via filtration and is read on the Idexx screen machine. The data are analyzed by appropriate computer algorithms to ascertain percent inhibition values.

The mark [1] stands for this setting: Table I, Dose 0.123 μM, read-out: Protease % Inhib.
Setting [2] is: Table I, Dose 0.370 μM, read-out: Protease % Inhib.
The mark [3] stands for this setting: Table I, Dose 1.100 μM, read-out: Protease % Inhib.
Setting [4] is: Table I, Dose 3.300 μM, read-out: Protease % Inhib.
Setting [5] is: Table I, Dose 10.000 μM, read-out: Protease % Inhib.
[6] abbreviates: Table I, Dose 30.000 μM, read-out: Protease % Inhib.

For `CCC(C1=C(O)CC(CC(C)C)(CC(C)C)OC1=O)c1cccc(NS(=O)(=O)c2ccc(C#N)cn2)c1` (racemic) [Example 304, 5-Cyano-N-[3-(1-[5,6-dihydro-6,6-diisobutyl-4-hydroxy-2-oxo-2H-pyran-3-yl]propyl)phenyl]-2-pyridinesulfonamide], the “PROTEASE % INHIB.” value (Table II, enzyme HIV-1, DOSE 0.123 (unit not given)) worked out at 92.01%; the “PROTEASE % INHIB.” value (Table II, enzyme HIV-1, DOSE 0.370 (unit not given)) amounted to 93.28%; the “PROTEASE % INHIB.” value (Table II, enzyme HIV-1, DOSE 1.100 (unit not given)) was found to be 96.47%; the “PROTEASE % INHIB.” value (Table II, enzyme HIV-1, DOSE 3.300 (unit not given)) was determined as 100.47%; the “PROTEASE % INHIB.” value (Table II, enzyme HIV-1, DOSE 10.000 (unit not given)) was found to be 107.61%; the “PROTEASE % INHIB.” value (Table II, enzyme HIV-1, DOSE 30.000 (unit not given)) is listed as 79.68%.
For `CC[C@H](Cc1ccccc1)c1cc(O)c(C(c2cccc(NS(=O)(=O)c3ccc(C#N)cc3)c2)C2CC2)c(=O)o1` (single isomer, unassigned) [Example 149, N-(3-(R or S)-{Cyclopropyl-[6-(1-(R)-ethylphenethyl)-4-hydroxy-2-oxo-2H-pyran-3-yl]-methyl}-phenyl)-4-cyanobenzenesulfonamide], the “PROTEASE % INHIB.” value reads like this: (Table I, Dose 0.123 μM) 80.51%; (Table I, Dose 0.370 μM) 87.52%; (Table I, Dose 1.100 μM) 96.32%; (Table I, Dose 3.300 μM) 92.86%; (Table I, Dose 10.000 μM) 97.12%; (Table I, Dose 30.000 μM) 95.99%.
Consider `CCCCCC1(CCCCC)CC(O)=C(C(CC)c2cccc(NS(=O)(=O)c3cn(C)cn3)c2)C(=O)O1` (stereo not drawn) [Example 63, N-[3-[1-(4-Hydroxy-2-oxo-6,6-dipentyl-5,6-dihydro-2H-pyran-3-yl)-propyl]-phenyl]-1-methyl-1H-imidazole-4-sulfonamide], for which, where the note is “read-out: Protease % Inhib”, the inhibition at 0.123 µM is 68.9%, the inhibition at 0.37 µM was 79.6%, the inhibition at 1.1 µM was found to be 88.6% and the inhibition at 3.3 µM was found to be 87.4%. Also, for the setting “read-out: Protease % Inhib”, the inhibition at 10 µM is 83.6% and the inhibition at 30 µM was found to be 78.8%.
Turning to `CCCCCC1(CCCCC)CC(O)=C(C(CC)c2cccc(NS(=O)(=O)c3ccc(C#N)cc3)c2)C(=O)O1` (stereo not drawn) [Example 64, 4-Cyano-N-[3-[1-(4-Hydroxy-2-oxo-6,6-dipentyl-5,6-dihydro-2H-pyran-3-yl)-propyl]-phenyl]-benzenesulfonamide], under setting [1], the inhibition at 0.123 µM stood at 27.9%. The inhibition at 0.37 µM under setting [2] came out at 50.8%. Under setting [3], the inhibition at 1.1 µM came out at 75.6%. The inhibition at 3.3 µM under setting [4] amounted to 80.9%. Also, the inhibition at 10 µM under setting [5] was found to be 82%. In addition, the inhibition at 30 µM under setting [6] is 84.4%.
Consider `N#Cc1ccc(S(=O)(=O)Nc2cccc(C(c3c(O)cc(C(CC4CC4)CC4CC4)oc3=O)C3CC3)c2)cc1` (stereo not drawn) [Example 95, 4-Cyano-N-(3-{cyclopropyl-[6-(2-cyclopropyl-1-cyclopropylmethyl-ethyl)-4-hydroxy-2-oxo-2H-pyran-3-yl]-methyl}-phenyl)-benzenesulfonamide], for which, under setting [1], the inhibition at 0.123 µM was 91.2%. The inhibition at 0.37 µM under setting [2] came out at 102%. Also, the inhibition at 1.1 µM under setting [3] is 106%. Also, the inhibition at 3.3 µM under setting [4] is 113%. The inhibition at 10 µM under setting [5] amounted to 110%. Further, the inhibition at 30 µM under setting [6] came to 113%.
In the case of `O=c1oc(C(CC2CC2)CC2CC2)cc(O)c1C(c1cccc(NS(=O)(=O)c2cccc3cccnc23)c1)C1CC1` (stereo not drawn) [Example 96, N-(3-{Cyclopropyl-[6-(2-cyclopropyl-1-cyclopropylmethyl-ethyl)-4-hydroxy-2-oxo-2H-pyran-3-yl]-methyl}-phenyl)-8-quinolinesulfonamide], the inhibition at 0.123 µM under setting [1] stood at 94.2%. The inhibition at 0.37 µM under setting [2] worked out at 119%. Also, the inhibition at 1.1 µM under setting [3] was determined as 122%. For the same molecule, under setting [4], the inhibition at 3.3 µM turned out to be 111%. Further, under setting [5], the inhibition at 10 µM worked out at 111%. The inhibition at 30 µM under setting [6] was determined as 109%.
Turning to `COCCOCCCc1cc(O)c(C(c2cccc(NS(=O)(=O)c3cn(C)cn3)c2)C2CC2)c(=O)o1` (stereo not drawn) [Example 104, N-(3-{Cyclopropyl-[4-hydroxy-6-(3-{2-methoxy-ethoxy}-propyl)-2-oxo-2H-pyran-3-yl]-methyl}-phenyl)-1-methyl-1H-imidazole-4-sulfonamide], the inhibition at 0.123 µM under setting [1] is less than 10%. The inhibition at 0.37 µM under setting [2] came out at 61.7%. In addition, under setting [3], the inhibition at 1.1 µM was 81.8%. For the same molecule, under setting [4], the inhibition at 3.3 µM came to 93.3%. Besides, the inhibition at 10 µM under setting [5] worked out at 96.4%. Besides, the inhibition at 30 µM under setting [6] was determined as 109%.
In the case of `CCC(CCOCCOC)c1cc(O)c(C(c2cccc(NS(=O)(=O)c3cn(C)cn3)c2)C2CC2)c(=O)o1` (stereo not drawn) [Example 105, N-(3-{Cyclopropyl-[6-(1-ethyl-3-{2-methoxy-ethoxy}-propyl)-4-hydroxy-2-oxo-2H-pyran-3-yl]-methyl}-phenyl)-1-methyl-1H-imidazole-4-sulfonamide], under setting [1], the inhibition at 0.123 µM amounted to 101%. Besides, the inhibition at 0.37 µM under setting [2] stood at 115%. Also, under setting [3], the inhibition at 1.1 µM is 107%. Also, the inhibition at 3.3 µM under setting [4] came out at 111%. In addition, the inhibition at 10 µM under setting [5] is 111%. The inhibition at 30 µM under setting [6] was 111%.
Turning to `CCC(CCN=[N+]=[N-])c1cc(O)c(C(c2cccc(NS(=O)(=O)c3cn(C)cn3)c2)C2CC2)c(=O)o1` (stereo not drawn) [Example 109, N-(3-{[6-(3-Azido-1-ethyl-propyl)-4-hydroxy-2-oxo-2H-pyran-3-yl]-cyclopropyl-methyl}-phenyl)-1-methyl-1H-imidazole-4-sulfonamide], the inhibition at 0.123 µM under setting [1] amounted to 105%. The inhibition at 0.37 µM under setting [2] is 99.3%. The inhibition at 1.1 µM under setting [3] is 104%. For the same molecule, the inhibition at 3.3 µM under setting [4] worked out at 101%. The inhibition at 10 µM under setting [5] is 109%. The inhibition at 30 µM under setting [6] was determined as 109%.
In the case of `CCC(CC1CCOCC1)c1cc(O)c(C(c2cccc(NS(=O)(=O)c3cn(C)cn3)c2)C2CC2)c(=O)o1` (stereo not drawn) [Example 135, N-(3-{Cyclopropyl-[6-(1-(tetrahydropyran-4-ylmethyl)-propyl)-4-hydroxy-2-oxo-2H-pyran-3-yl]-methyl}-phenyl)-1-methyl-1H-imidazole-4-sulfonamide], the inhibition at 0.123 µM under setting [1] turned out to be 33.2%. The inhibition at 0.37 µM under setting [2] turned out to be 84.5%. Also, under setting [3], the inhibition at 1.1 µM worked out at 99.1%. Moreover, under setting [4], the inhibition at 3.3 µM is 96.9%. In addition, the inhibition at 10 µM under setting [5] was found to be 101%. The inhibition at 30.9 µM (read-out: Protease % Inhib) amounted to 102%.
Turning to `CN(c1cccc(C(c2c(O)c3c(oc2=O)CCCCCC3)C2CC2)c1)S(=O)(=O)c1ccccc1` (stereo not drawn) [Example 194, N-methyl-N-[3-[cyclopropyl(5,6,7,8,9,10-hexahydro-4-hydroxy-2-oxo-2H-cycloocta[b]pyran-3-yl)methyl]phenyl]-benzenesulfonamide], the inhibition at 0.123 µM under setting [1] is less than 10%. Also, the inhibition at 0.37 µM under setting [2] came to 20%. The inhibition at 1.1 µM under setting [3] was found to be 53.9%. Also, under setting [4], the inhibition at 3.3 µM is 75.2%. Moreover, under setting [5], the inhibition at 10 µM was 85.5%. Besides, the inhibition at 30 µM under setting [6] was 85.2%.
In the case of `CCCC1(CCc2ccc(F)cc2)CC(O)=C(C(c2cccc(NS(=O)(=O)c3ccc(C#N)cn3)c2)C(C)(C)C)C(=O)O1` (stereo not drawn) [Example 253, N-[3-{1-(4-Hydroxy-5,6-dihydro-2-oxo-6-(2-(4-fluorophenyl)ethyl)-6-propyl-2H-pyran-3-yl)-2,2-dimethylpropyl}phenyl]-5-cyanopyridine-2-sulfonamide], under setting [1], the inhibition at 0.123 µM was 94%. Besides, under setting [2], the inhibition at 0.37 µM was determined as 96.8%. Further, the inhibition at 1.1 µM under setting [3] turned out to be 97.6%. In addition, the inhibition at 3.3 µM under setting [4] is 95.9%. In addition, the inhibition at 10 µM under setting [5] is 97%. Moreover, the inhibition at 30 µM under setting [6] amounted to 98.5%.

The values above are taken from patent US6169181A, “Compounds useful to treat retroviral infections” (Pharmacia & Upjohn Company, priority 1998, dated 2001).
